Laboratory results as given in publication PMC9578396, “Intrinsic Antibacterial Activity of Xeruborbactam In Vitro: Assessing Spectrum and Mode of Action” (Antimicrobial Agents and Chemotherapy, 2022).
Like-named read-outs stand apart in the source and are kept apart here.

How the values were obtained:
Type in all cases: cell-based
Pseudomonas aeruginosa = assay: Broth microdilution MIC (CLSI), Pseudomonas aeruginosa
Source text: (§1) (i) Panels of engineered bacterial strains containing various combinations of porin and efflux mutations were used. The construction of all the strains used in the study is described in detail in references, [44], and [45]. (ii) KPC-producing clinical isolates and their derivatives that lost KPC plasmids were used also. These strains and their origins are described in the Table S2. (iii) Finally, KPC-producing clinical isolates enriched in strains with porin mutations were used. The mutations identified include various deletions, insertions, nonsense mutations, and decreased expression. Most of the isolates were obtained from JMI Laboratories or International Health Management Associates (IHMA); they were collected in the course of global surveillance studies.
(§2) Bacterial isolates were subjected to broth microdilution susceptibility testing, performed according to Clinical and Laboratory Standards Institute (CLSI) methods ([46]), using panels prepared in-house. […] Xeruborbactam was synthesized at Qpex Biopharma, San Diego, CA. Avibactam was purchased from eNovation Chemicals LLC, Bridgewater, NJ, USA; zidebactam was from MedKoo Biosciences, Inc., Morrisville, NC, and nacubactam was from Advanced ChemBlocks, Hayward, CA. Durlobactam was synthesized at Acme Bioscience, Palo Alto, CA, USA.

Acinetobacter baumannii = assay: Broth microdilution MIC (CLSI), Acinetobacter baumannii; conditions: Acinetobacter baumannii, read-out: MIC
Source text: as §1, §2

Klebsiella pneumoniae = assay: microbe, parasite or virus in culture; conditions: for MIC90: read-out: MIC90
Source text: as §1, §2

[1] = PAM1154 (oprM::Hg), xeruborbactam 0 µg/ml
[2] = Klebsiella pneumoniae, KPC-producing clinical strains with functional OmpK36, alone
[3] = Klebsiella pneumoniae, KPC-producing clinical strains with nonfunctional OmpK36, alone
[4] = Klebsiella pneumoniae, KPC-producing clinical strains, all strains (n = 141), alone

Structure (SMILES): CCN1CCN(C(=O)N[C@@H](C(=O)N[C@@H]2C(=O)N3[C@@H]2SC(C)(C)[C@@H]3C(=O)O)c2ccccc2)C(=O)C1=O [Piperacillin]
- MIC (Pseudomonas aeruginosa; [1]): 0.5 µg/mL
- MIC (Pseudomonas aeruginosa; PAM1154, xeruborbactam 2 µg/ml): 0.125 µg/mL
- MIC (Pseudomonas aeruginosa; PAM1154, xeruborbactam 4 µg/ml): 0.125 µg/mL
- MIC (Pseudomonas aeruginosa; PAM1154, xeruborbactam 8 µg/ml): 0.06 µg/mL

Structure (SMILES): CC1(C)[C@H](C(=O)O)N2C(=O)C[C@H]2S1(=O)=O [Sulbactam]
- MIC (Acinetobacter baumannii; AB1007 (no beta-lactamase), xeruborbactam 0 µg/ml): 2 µg/mL
- MIC (Acinetobacter baumannii; AB1007, xeruborbactam 2 µg/ml): 2 µg/mL
- MIC (Acinetobacter baumannii; AB1007, xeruborbactam 4 µg/ml): 2 µg/mL
- MIC (Acinetobacter baumannii; AB1007, xeruborbactam 8 µg/ml): 0.25 µg/mL

Structure (SMILES): C[C@@H](O)[C@H]1C(=O)N2C(C(=O)O)=C(SC3CN(C4=NCCS4)C3)[C@H](C)[C@H]12 [Tebipenem]
- MIC (Klebsiella pneumoniae; KPM1026a (no beta-lactamase), xeruborbactam 0 µg/ml): 0.03 µg/mL
- MIC (Klebsiella pneumoniae; KPM1026a, xeruborbactam 2 µg/ml): 0.03 µg/mL
- MIC (Klebsiella pneumoniae; KPM1026a, xeruborbactam 4 µg/ml): 0.016 µg/mL
- MIC (Klebsiella pneumoniae; KPM1026a, xeruborbactam 8 µg/ml): 0.004 µg/mL

Structure (SMILES): O=C(O)C[C@@H]1CC[C@H](NC(=O)Cc2cccs2)B(O)O1 [Vaborbactam]
- effect on beta-lactam MIC (Klebsiella pneumoniae; KPM1026a, vaborbactam up to 64 μg/mL, data not shown): no reduction
- MIC50 (Klebsiella pneumoniae; [2]): > 64 µg/mL
- MIC90 (Klebsiella pneumoniae; [2]): > 64 µg/mL
- MIC50 (Klebsiella pneumoniae; [3]): > 64 µg/mL
- MIC90 (Klebsiella pneumoniae; [3]): > 64 µg/mL
- MIC50 (Klebsiella pneumoniae; [4]): > 64 µg/mL
- MIC90 (Klebsiella pneumoniae; [4]): > 64 µg/mL
- MIC (Klebsiella pneumoniae; Klebsiella pneumoniae, KPM1271 (KPC-3; wild type), alone, read-out: MIC): > 128 µg/mL
- MIC (Klebsiella pneumoniae; Klebsiella pneumoniae, KPM1272 (KPC-3; ramR_fs), alone, read-out: MIC): > 128 µg/mL
- MIC (Klebsiella pneumoniae; Klebsiella pneumoniae, KPM1273 (KPC-3; ramR_fs ompK36_1171), alone, read-out: MIC): > 128 µg/mL
- MIC (Klebsiella pneumoniae; Klebsiella pneumoniae, KPM2067 (KPC-3; ompK36_fs), alone, read-out: MIC): > 128 µg/mL
- MIC (Klebsiella pneumoniae; Klebsiella pneumoniae, KPM2601 (KPC-3; ΔompK35), alone): > 128 µg/mL
- MIC (Klebsiella pneumoniae; Klebsiella pneumoniae, KPM2631 (KPC-3; ompK36_fs ΔompK35), alone): > 128 µg/mL

Structure (SMILES): Cn1c(N)c(NC(=O)NCCN)c[n+]1CC1=C(C(=O)O)N2C(=O)[C@@H](NC(=O)/C(=N\OC(C)(C)C(=O)[O-])c3nsc(N)n3)[C@H]2SC1 [ceftolozane]
- MIC (Pseudomonas aeruginosa; [1]): 0.5 µg/mL
- MIC (Pseudomonas aeruginosa; PAM1154, xeruborbactam 2 µg/ml): 0.25 µg/mL
- MIC (Pseudomonas aeruginosa; PAM1154, xeruborbactam 4 µg/ml): 0.25 µg/mL
- MIC (Pseudomonas aeruginosa; PAM1154, xeruborbactam 8 µg/ml): 0.125 µg/mL

Structure (SMILES): CC1=C(C(=O)O)N2C(=O)[C@@H](NC(=O)[C@H](N)c3ccccc3)[C@H]2SC1 [cephalexin]
- MIC (Klebsiella pneumoniae; Klebsiella pneumoniae): 128 µg/mL
